Assay results published in paper PMC8668026 (ACS infectious diseases, 2021).
In brackets after ≈: the same amount, converted by molar mass. Square brackets hold non-standard residues; d marks the D form. Peptide text beside a SMILES is read from it. * marks the point of attachment. ξ: configuration not given here. ξR = N=C(N)NCCCC(N)C(=O)O; βNA = c1ccc2cc(N*)ccc2c1

Key:
K. pneumoniae ATCC13883 [1] = experiment: Potentiation of NOV, ERY, CIP in K. pneumoniae; assay type: cell-based, Klebsiella pneumoniae
AcrAB−TolC = AcrAB−TolC (Escherichia coli, UniProt P0AE06+P31224); conditions: steady-state Nile Red accumulation in WT-pore cells with 32 μM vs 0 μM compound
E. coli ΔtolC-pore = experiment: MIC, 2-fold broth dilution, ΔtolC-pore; assay type: cell-based, Escherichia coli; conditions: average of two replicates
AcrA [2] = target: T1, AcrA (Escherichia coli, UniProt P0AE06); conditions: periplasm of WT-pore cells; trypsin; accumulation of K46-K346 fragment
E. cloacae ATCC13047 [3] = experiment: MIC in E. cloacae; assay type: cell-based, Enterobacter cloacae
E. coli WT-pore = experiment: MIC, 2-fold broth dilution, hyperporinated WT-pore; assay type: cell-based, Escherichia coli; conditions: for MIC: Escherichia coli, read-out: MIC WT-pore
E. coli BW25113 (WT) = experiment: MIC, 2-fold broth dilution, E. coli WT; assay type: cell-based, Escherichia coli; conditions: for MIC: Escherichia coli, BW25113, read-out: MIC WT
A549 cells = experiment: MTS cytotoxicity assay; assay type: cell-based, human; conditions: average of two replicates
E. cloacae ATCC13047 [4] = experiment: Potentiation of NOV, ERY, CIP in E. cloacae; assay type: cell-based, Enterobacter cloacae
E. coli WT-pore cells = experiment: Checkerboard potentiation of novobiocin/erythromycin; assay type: cell-based, Escherichia coli
E. coli ΔtolC = experiment: MIC, 2-fold broth dilution, efflux-deficient ΔtolC; assay type: cell-based, Escherichia coli; conditions: average of two replicates
K. pneumoniae ATCC13883 [5] = experiment: MIC in K. pneumoniae; assay type: cell-based, Klebsiella pneumoniae
AcrB = AcrB (Escherichia coli, UniProt P31224); conditions: read-out: KD AcrB; SPR; ref [38] and [47]; cited from earlier work
AcrA [6] = target: T1, AcrA; conditions: read-out: KD AcrA; SPR; ref [38] and [47]; cited from earlier work
[7] = Enterobacter cloacae, ATCC13047
[8] = Klebsiella pneumoniae, ATCC13883

T1 sequence (P0AE06 25-397): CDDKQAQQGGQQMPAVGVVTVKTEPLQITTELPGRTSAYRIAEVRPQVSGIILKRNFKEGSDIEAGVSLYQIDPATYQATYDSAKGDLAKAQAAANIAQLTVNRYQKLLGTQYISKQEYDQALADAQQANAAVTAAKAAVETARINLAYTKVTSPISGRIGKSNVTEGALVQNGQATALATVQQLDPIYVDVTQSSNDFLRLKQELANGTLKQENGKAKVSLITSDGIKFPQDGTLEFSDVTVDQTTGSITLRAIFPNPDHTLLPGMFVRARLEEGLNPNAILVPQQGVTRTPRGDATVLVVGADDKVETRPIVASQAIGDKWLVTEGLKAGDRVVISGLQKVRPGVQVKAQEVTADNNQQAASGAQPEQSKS
Sequence of AcrB (P31224 whole entry): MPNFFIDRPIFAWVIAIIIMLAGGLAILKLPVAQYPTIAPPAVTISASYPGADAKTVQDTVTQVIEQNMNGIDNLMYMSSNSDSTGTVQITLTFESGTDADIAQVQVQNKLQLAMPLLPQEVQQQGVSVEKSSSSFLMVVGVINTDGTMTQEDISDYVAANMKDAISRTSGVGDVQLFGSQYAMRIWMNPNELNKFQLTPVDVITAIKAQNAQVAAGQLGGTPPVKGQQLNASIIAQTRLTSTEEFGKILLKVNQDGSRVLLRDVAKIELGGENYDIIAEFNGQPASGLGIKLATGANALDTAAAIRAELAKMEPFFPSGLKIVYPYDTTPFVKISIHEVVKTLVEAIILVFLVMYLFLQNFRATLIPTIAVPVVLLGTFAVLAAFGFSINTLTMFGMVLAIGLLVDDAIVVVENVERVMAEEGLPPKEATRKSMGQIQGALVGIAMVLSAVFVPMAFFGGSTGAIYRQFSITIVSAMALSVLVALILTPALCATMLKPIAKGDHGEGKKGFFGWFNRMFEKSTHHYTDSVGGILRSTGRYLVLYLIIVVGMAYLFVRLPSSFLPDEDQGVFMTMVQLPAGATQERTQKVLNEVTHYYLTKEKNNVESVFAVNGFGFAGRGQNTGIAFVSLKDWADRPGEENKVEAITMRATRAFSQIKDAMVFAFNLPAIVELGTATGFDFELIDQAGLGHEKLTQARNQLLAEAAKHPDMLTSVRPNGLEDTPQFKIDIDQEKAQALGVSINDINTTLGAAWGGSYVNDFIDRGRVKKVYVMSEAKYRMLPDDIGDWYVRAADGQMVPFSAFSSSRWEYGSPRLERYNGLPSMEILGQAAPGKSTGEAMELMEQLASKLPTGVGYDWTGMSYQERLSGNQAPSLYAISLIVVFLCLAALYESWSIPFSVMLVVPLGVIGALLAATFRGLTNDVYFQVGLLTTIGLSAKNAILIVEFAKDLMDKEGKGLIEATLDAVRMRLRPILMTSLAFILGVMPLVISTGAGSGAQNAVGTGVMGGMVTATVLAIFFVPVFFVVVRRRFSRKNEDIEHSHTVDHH
Sequence of AcrAB−TolC (P31224 whole entry): as above
Sequence of AcrAB−TolC (P0AE06 25-397): as the sequence (P0AE06 25-397) above
Sequence of AcrAB−TolC (P02930 23-493, further chain): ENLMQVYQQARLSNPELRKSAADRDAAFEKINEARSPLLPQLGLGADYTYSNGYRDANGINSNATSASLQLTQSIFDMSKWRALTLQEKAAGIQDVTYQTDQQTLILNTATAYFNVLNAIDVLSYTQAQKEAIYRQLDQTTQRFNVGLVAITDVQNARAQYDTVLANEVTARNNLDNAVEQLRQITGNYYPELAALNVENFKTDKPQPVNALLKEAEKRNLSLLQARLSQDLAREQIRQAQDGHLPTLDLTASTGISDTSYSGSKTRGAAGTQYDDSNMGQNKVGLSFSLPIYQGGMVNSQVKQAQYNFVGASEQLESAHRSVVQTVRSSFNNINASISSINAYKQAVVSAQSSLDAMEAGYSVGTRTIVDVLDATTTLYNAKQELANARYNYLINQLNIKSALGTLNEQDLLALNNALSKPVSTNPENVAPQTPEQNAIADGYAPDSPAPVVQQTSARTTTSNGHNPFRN

Cc1cc(N)c2cc(NC(=O)/C=C/c3ccccc3Cl)ccc2n1 [Compound 2]
fold MIC (NOV) (K. pneumoniae ATCC13883 [1]): 64 | efflux inhibition, SS ratio 32 μM/0 μM (AcrAB−TolC): 6.5 | MIC ΔtolC-pore (E. coli ΔtolC-pore): 12.5 µM (≈ 4.22 µg/mL) | effect on proteolytic profile of AcrA (AcrA [2]): did not affect the proteolytic profiles of AcrA | MIC (E. cloacae ATCC13047 [3]; E. cloacae ATCC13047, test compounds, average of two replicates): >100 µM | MIC WT-pore (E. coli WT-pore; E. coli hyperporinated WT-pore, average of two replicates): 100 µM (≈ 33.8 µg/mL) | MIC WT (E. coli BW25113 (WT); E. coli WT, average of two replicates): 200 µM (≈ 67.6 µg/mL) | CC50 (A549 cells): 10 µM | fold MIC (CIP) (E. cloacae ATCC13047 [4]): 1 | fold MIC (ERY) (E. cloacae ATCC13047 [4]): 8 | fold MIC (NOV) (E. cloacae ATCC13047 [4]): 64 | potentiation MPC4 (ERY) (E. coli WT-pore cells; minimum concentration reducing MIC of erythromycin 4-fold): 3.1 µM | potentiation MPC4 (NOV) (E. coli WT-pore cells; minimum concentration reducing MIC of novobiocin 4-fold): 1.56 µM | MIC ΔtolC (E. coli ΔtolC): 12.5 µM (≈ 4.22 µg/mL) | MIC (K. pneumoniae ATCC13883 [5]; K. pneumoniae ATCC13883, test compounds, average of two replicates): >100 µM

CC[C@H]1OC(=O)[C@H](C)[C@@H](O[C@H]2C[C@@](C)(OC)[C@@H](O)[C@H](C)O2)[C@H](C)[C@@H](O[C@@H]2O[C@H](C)C[C@H](N(C)C)[C@H]2O)[C@](C)(O)C[C@@H](C)C(=O)[C@H](C)[C@@H](O)[C@]1(C)O [ERY, erythromycin]
MIC (E. cloacae ATCC13047 [3]; [7]): 400 µg/mL | MIC (E. coli WT-pore): 4 to 8 µM (≈ 2.94 to 5.87 µg/mL) | MIC (E. coli BW25113 (WT)): 64 µM (≈ 47 µg/mL) | MIC ΔtolC (E. coli ΔtolC): 2 µM (≈ 1.47 µg/mL) | MIC (K. pneumoniae ATCC13883 [5]; [8]): 400 µg/mL

NC(N)=NCCCC(NC(=O)[C@@H](N)Cc1ccccc1)C(=O)Nc1ccc2ccccc2c1 (stereo partly shown) [MC] (H-Phe-[ξR]-βNA)
Kd (AcrB): 110 µM

CO[C@@H]1[C@@H](OC(N)=O)[C@@H](O)[C@H](Oc2ccc3c(O)c(NC(=O)c4ccc(O)c(CC=C(C)C)c4)c(=O)oc3c2C)OC1(C)C [NOV, novobiocin]
MIC ΔtolC-pore (E. coli ΔtolC-pore): 0.125 µM (≈ 0.0766 µg/mL) | MIC (E. cloacae ATCC13047 [3]; [7]): 400 µg/mL | MIC (E. coli WT-pore): 32 to 64 µM (≈ 19.6 to 39.2 µg/mL) | MIC (E. coli BW25113 (WT)): 128 µM (≈ 78.4 µg/mL) | MIC ΔtolC (E. coli ΔtolC): 0.5 µM (≈ 0.306 µg/mL) | Kd (AcrA [6]): 40 µM | MIC (K. pneumoniae ATCC13883 [5]; [8]): 50 µg/mL
